Experimental data from PubChem BioAssay AID212 (DTP/NCI, 2004).
Values joined by “and” are separate entries in the source; they are usually repeats but may differ in a detail not shown here. Equal values may be shown once. Records with an inconclusive call do not appear.

Tested on: BDF1 mice, colon carcinoma 38 sc, T/C %
Assay: NCI In Vivo Anticancer Drug Screen. Data for tumor model Colon Carcinoma 38 (subcutaneous) in B6D2F1 (BDF1) mice
Settings: endpoint: median tumor weight (est.), higher = larger tumour
Procedure, shortened: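 Mice with transplanted tumors are treated with compound or vehicle. Survival or tumor size is then measured in both groups. The ratio of treated to control gives the reported figure.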

[1] = dose: 25.0 mg/kg/injection, schedule: Q07DX002 (ip), vehicle: saline
[2] = dose: 50.0 mg/kg/injection, schedule: Q07DX002 (ip), vehicle: saline
[3] = dose: 200.0 mg/kg/injection, schedule: Q07DX002 (ip), vehicle: saline
[4] = dose: 25.0 mg/kg/injection, schedule: Q07DX002 (ip), vehicle: saline with Tween-80
[5] = dose: 50.0 mg/kg/injection, schedule: Q07DX002 (ip), vehicle: saline with Tween-80
[6] = dose: 100.0 mg/kg/injection, schedule: Q07DX002 (ip), vehicle: saline with Tween-80

In the case of `NC1(C(=O)O)CCCC1`, the T/C (dose: 12.5 mg/kg/injection, schedule: Q07DX003 (ip), vehicle: saline) is reported as 72 % of control, the T/C (dose: 25.0 mg/kg/injection, schedule: Q07DX003 (ip), vehicle: saline) is reported as 78 % of control and the T/C (dose: 50.0 mg/kg/injection, schedule: Q07DX003 (ip), vehicle: saline) is reported as 92 % of control. The T/C (dose: 100.0 mg/kg/injection, schedule: Q07DX003 (ip), vehicle: saline) was 66 % of control and the T/C (dose: 200.0 mg/kg/injection, schedule: Q07DX003 (ip), vehicle: saline) was 16 % of control.

`O=C(NO)c1ccccc1` was tested, and the T/C [1] was 70 % of control, the T/C (dose: 25.0 mg/kg/injection, schedule: Q07DX002 (ip), vehicle: suspension in saline) was 168 % of control and the T/C [2] was 83 % of control. The T/C (dose: 100.0 mg/kg/injection, schedule: Q07DX002 (ip), vehicle: saline) was 63 % of control, the T/C [3] was 80 % of control and the T/C (dose: 200.0 mg/kg/injection, schedule: Q07DX002 (ip), vehicle: suspension in saline) was 165 % of control. For the same compound, the T/C (dose: 400.0 mg/kg/injection, schedule: Q07DX002 (ip), vehicle: saline) was 70 % of control, the T/C (dose: 400.0 mg/kg/injection, schedule: Q07DX002 (ip), vehicle: suspension in saline) was 103 % of control and the T/C (dose: 800.0 mg/kg/injection, schedule: Q07DX002 (ip), vehicle: saline) was 89 % of control. The T/C (dose: 800.0 mg/kg/injection, schedule: Q07DX002 (ip), vehicle: suspension in saline) was 105 % of control.

For `N=C(N)CCCCCCCCC(=N)N`, the T/C (dose: 1.56 mg/kg/injection, schedule: Q07DX002 (ip), vehicle: saline) was 102 % of control, the T/C (dose: 3.12 mg/kg/injection, schedule: Q07DX002 (ip), vehicle: saline) was 88 % of control and 99 % of control and the T/C (dose: 6.25 mg/kg/injection, schedule: Q07DX002 (ip), vehicle: saline) was 107 % of control. The T/C (dose: 12.5 mg/kg/injection, schedule: Q07DX002 (ip), vehicle: saline) was 76 % of control and the T/C [1] was 112 % of control.

`CCC1OC(OC)C=CC1=O` (centres undefined) was tested, and the T/C [4] was 92 % of control, the T/C [5] was 73 % of control and the T/C [6] was 73 % of control.

In the case of `ClC(Cl)(Cl)C1=NCc2nnn(Cc3ccccc3)c2N1`, the T/C (dose: 12.5 mg/kg/injection, schedule: Q07DX002 (ip), vehicle: distilled water + Tween-80) is reported as 116 % of control, the T/C (dose: 25.0 mg/kg/injection, schedule: Q07DX002 (ip), vehicle: distilled water + Tween-80) is reported as 80 % of control and the T/C [4] is reported as 97 % of control. For the same compound, the T/C [6] was 102 % of control, the T/C (dose: 200.0 mg/kg/injection, schedule: Q07DX002 (ip), vehicle: distilled water + Tween-80) was 80 % of control and the T/C (dose: 400.0 mg/kg/injection, schedule: Q07DX002 (ip), vehicle: saline with Tween-80) was 155 % of control.

In the case of `O=C(O)/C=C/C(=O)N1Cc2cc3ccccc3nc2C1`, the T/C (dose: 12.5 mg/kg/injection, schedule: Q07DX002 (ip), vehicle: saline with Tween-80) is reported as 84 % of control, the T/C [5] is reported as 89 % of control and the T/C [6] is reported as 173 % of control. The T/C (dose: 200.0 mg/kg/injection, schedule: Q07DX002 (ip), vehicle: saline with Tween-80) was 104 % of control.

In the case of `C(CSC1=NCCN1)CSC1=NCCN1`, the T/C [1] is reported as 112 % of control, the T/C [2] is reported as 96 % of control and the T/C [3] is reported as 120 % of control.

For `C#CCN(Cc1ccc2nc(N)[nH]c(=O)c2c1)c1ccc(C(=O)NC(CCC(=O)O)C(=O)O)cc1` (centres undefined), the T/C (dose: 50.0 mg/kg/injection, schedule: Q07DX002 (ip), vehicle: sodium bicarbonate) was 60 % of control, the T/C (dose: 100.0 mg/kg/injection, schedule: Q07DX002 (ip), vehicle: sodium bicarbonate) was 70 % of control and the T/C (dose: 200.0 mg/kg/injection, schedule: Q07DX002 (ip), vehicle: sodium bicarbonate) was 49 % of control. For the same compound, the T/C (dose: 400.0 mg/kg/injection, schedule: Q07DX002 (ip), vehicle: sodium bicarbonate) was 51 % of control.

With `CC[PH+](CC)CC[S-].CC[PH+](CC)CC[S-].[Au+].[Au+]` the T/C (dose: 5.0 mg/kg/injection, schedule: Q07DX002 (ip), vehicle: Klucel (hydroxypropylcellulose) (HPC)) was 67 % of control, the T/C (dose: 10.0 mg/kg/injection, schedule: Q07DX002 (ip), vehicle: Klucel (hydroxypropylcellulose) (HPC)) was 89 % of control and the T/C (dose: 20.0 mg/kg/injection, schedule: Q07DX002 (ip), vehicle: Klucel (hydroxypropylcellulose) (HPC)) was 78 % of control. For the same compound, the T/C (dose: 40.0 mg/kg/injection, schedule: Q07DX002 (ip), vehicle: Klucel (hydroxypropylcellulose) (HPC)) was 57 % of control.
